Measurements reported in article PMC3914206.

Legend:
Assay type in all cases: binding
Details in all cases: Compound Concentration 10 µM
panel of 442 kinases [1] = molecular target: T1, panel of 442 kinases (Homo sapiens, UniProt O96013)
T1 construct: purchased KINOMEscan
Description: (§1) We assessed the selectivity of members of this scaffold using the KINOMEscan methodology across a near comprehensive panel of 442 kinases [[18,27]].

panel of 442 kinases [2] = molecular target: T2, panel of 442 kinases (Homo sapiens, UniProt P42336, I800L)
T2 construct: purchased KINOMEscan
T2 sequence (P42336 whole entry I800L): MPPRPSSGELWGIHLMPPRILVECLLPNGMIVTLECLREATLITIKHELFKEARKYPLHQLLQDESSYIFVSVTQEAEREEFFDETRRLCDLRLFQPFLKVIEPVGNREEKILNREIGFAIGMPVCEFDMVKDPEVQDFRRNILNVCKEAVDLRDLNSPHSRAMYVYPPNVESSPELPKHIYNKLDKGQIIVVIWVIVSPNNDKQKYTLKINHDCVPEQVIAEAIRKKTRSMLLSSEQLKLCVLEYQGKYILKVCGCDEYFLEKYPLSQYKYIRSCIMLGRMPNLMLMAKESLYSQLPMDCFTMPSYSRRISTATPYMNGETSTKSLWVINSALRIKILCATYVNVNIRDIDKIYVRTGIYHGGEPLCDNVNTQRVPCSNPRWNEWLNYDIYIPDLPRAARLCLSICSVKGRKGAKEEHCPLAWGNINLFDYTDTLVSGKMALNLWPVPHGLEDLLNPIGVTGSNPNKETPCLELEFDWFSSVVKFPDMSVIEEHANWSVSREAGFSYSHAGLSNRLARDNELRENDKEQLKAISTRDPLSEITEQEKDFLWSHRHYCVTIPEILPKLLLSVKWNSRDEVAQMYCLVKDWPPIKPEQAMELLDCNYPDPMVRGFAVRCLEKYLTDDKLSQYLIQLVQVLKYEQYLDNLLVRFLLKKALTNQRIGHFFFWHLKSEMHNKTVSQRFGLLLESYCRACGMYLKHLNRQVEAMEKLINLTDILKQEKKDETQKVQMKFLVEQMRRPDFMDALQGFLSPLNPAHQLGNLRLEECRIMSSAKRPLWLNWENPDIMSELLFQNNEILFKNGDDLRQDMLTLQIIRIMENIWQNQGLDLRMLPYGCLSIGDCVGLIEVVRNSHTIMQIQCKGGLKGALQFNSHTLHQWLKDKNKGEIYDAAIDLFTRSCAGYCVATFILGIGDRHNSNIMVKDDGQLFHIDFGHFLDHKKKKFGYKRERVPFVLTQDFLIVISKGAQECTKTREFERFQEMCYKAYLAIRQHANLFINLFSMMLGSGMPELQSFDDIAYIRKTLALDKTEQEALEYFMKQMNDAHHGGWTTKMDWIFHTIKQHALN
Description: as §1

panel of 442 kinases [3] = molecular target: T3, panel of 442 kinases (Homo sapiens, UniProt Q04912)
T3 construct: purchased KINOMEscan
T3 sequence (Q04912 25-1400): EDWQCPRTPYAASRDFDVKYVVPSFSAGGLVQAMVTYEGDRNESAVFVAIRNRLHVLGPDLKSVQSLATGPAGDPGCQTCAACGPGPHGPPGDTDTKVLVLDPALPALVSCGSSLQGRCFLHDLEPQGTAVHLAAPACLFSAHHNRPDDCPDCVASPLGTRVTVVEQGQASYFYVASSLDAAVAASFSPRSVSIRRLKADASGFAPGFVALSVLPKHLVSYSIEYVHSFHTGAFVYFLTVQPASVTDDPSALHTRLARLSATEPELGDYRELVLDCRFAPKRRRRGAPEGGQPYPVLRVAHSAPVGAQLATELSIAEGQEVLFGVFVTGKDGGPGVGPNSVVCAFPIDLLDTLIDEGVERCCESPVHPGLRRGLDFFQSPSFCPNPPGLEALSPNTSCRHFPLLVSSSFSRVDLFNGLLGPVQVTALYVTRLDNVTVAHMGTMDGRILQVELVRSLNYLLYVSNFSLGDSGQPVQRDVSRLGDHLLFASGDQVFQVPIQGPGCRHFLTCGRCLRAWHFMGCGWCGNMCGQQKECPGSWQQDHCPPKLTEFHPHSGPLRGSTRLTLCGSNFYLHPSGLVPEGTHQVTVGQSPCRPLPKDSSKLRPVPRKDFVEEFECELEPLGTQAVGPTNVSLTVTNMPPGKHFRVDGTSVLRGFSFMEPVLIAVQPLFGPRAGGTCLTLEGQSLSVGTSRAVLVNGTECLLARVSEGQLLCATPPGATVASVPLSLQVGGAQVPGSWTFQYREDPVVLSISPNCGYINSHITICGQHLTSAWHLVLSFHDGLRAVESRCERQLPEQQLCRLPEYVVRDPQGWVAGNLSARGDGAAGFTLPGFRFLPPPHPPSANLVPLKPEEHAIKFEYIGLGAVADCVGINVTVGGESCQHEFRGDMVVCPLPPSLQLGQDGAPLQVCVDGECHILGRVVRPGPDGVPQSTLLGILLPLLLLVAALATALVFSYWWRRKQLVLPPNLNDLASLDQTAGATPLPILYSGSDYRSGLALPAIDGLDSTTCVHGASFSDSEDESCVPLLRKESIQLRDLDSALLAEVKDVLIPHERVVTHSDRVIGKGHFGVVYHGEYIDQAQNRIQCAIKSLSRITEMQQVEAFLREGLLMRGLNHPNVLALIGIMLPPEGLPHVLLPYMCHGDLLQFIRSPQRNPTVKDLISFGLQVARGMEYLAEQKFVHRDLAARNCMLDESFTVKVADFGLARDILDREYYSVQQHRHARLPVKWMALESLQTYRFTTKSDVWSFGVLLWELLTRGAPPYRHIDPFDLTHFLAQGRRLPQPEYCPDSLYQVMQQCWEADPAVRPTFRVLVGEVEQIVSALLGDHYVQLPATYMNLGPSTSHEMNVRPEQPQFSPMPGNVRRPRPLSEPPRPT
Description: as §1

T1 sequence (O96013 whole entry): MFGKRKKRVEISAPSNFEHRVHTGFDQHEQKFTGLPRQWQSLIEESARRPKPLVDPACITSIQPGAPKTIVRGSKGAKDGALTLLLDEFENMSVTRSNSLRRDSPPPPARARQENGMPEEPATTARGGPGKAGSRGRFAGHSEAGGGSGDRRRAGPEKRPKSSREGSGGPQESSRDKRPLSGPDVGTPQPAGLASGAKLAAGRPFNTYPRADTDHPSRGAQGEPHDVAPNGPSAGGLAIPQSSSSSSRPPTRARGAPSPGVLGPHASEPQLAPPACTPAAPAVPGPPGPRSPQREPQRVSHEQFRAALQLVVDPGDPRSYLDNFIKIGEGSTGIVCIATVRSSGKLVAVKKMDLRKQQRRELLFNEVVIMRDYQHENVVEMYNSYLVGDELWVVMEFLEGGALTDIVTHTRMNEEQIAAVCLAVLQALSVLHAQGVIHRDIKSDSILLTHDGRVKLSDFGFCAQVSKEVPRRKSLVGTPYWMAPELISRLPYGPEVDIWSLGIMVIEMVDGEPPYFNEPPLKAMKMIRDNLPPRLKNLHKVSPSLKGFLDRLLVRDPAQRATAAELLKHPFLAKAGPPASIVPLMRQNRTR

| SMILES | KINOMEscan: PAK4 (panel of 442 kinases [1]) | KINOMEscan: PIK3CA(I800L) (panel of 442 kinases [2]) | KINOMEscan: MST1R (panel of 442 kinases [3]) |
| --- | --- | --- | --- |
| COc1cc(C(=O)N2CCC(N3CCN(C)CC3)CC2)ccc1Nc1ncc2c(n1)N(C1CCCC1)c1ccccc1C(=O)N2C [Compound 25, 11-cyclopentyl-2-((2-methoxy-4-(4-(4-methylpiperazin-1-yl)piperidine-1-carbonyl)phenyl)amino)-5-methyl-5H-benzo[e]pyrimido[5,4-b][1,4]diazepin-6(11H)-one] | 91 | 100 | 100 |
| COc1cc(C(=O)N2CCC(N3CCN(C)CC3)CC2)ccc1Nc1ncc2c(n1)N1CCc3cccc(c31)C(=O)N2C [Compound 24] |  | 64 |  |
| COc1cc(C(=O)N2CCC(N3CCN(C)CC3)CC2)ccc1Nc1ncc2c(n1)N(C)c1ccccc1C(=O)N2C [15 (LRRK2-IN-1)] | 94 | 38 | 98 |
| CCOc1cc(C(=O)N2CCC(N3CCN(C)CC3)CC2)ccc1Nc1ncc2c(n1)N(C1CCCC1)c1ccccc1C(=O)N2C [Compound 26] | 100 | 75 | 100 |
